One series relates to Venturia inaequalis. Briefly: Apple scab control on sprayed apple seedlings (Example 82). The format is in vivo. The conditions noted are these: Venturia inaequalis; for pest or weed control at 100 ppm: 100 ppm spray, day before inoculation.
For the next series, the system named is Cercospora arachidicola. As to the kind of experiment: Peanut early leafspot control on sprayed peanut seedlings (Example 84). The settings on record: Mycosphaerella arachidis, 360 h, 100 ppm spray, day before inoculation; read-out: % Control Peanut Easly Leafspot. The format is in vivo.
A further series deals with Helminthosporium maydis. As to the kind of experiment: Southern corn leaf blight control on sprayed corn seedlings (Example 83). The settings on record: Bipolaris maydis, 192 h, 100 ppm spray, day before inoculation. The format is in vivo. The method in brief:
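Compounds in 6% acetone at 100 ppm in water with 250 ppm TREM 014 surfactant, sprayed to run-off on corn seedlings; next day inoculated with spore suspension. 24 h at saturated humidity and 20°, then 7 days in growth room before disease rating; phytotoxicity scored as growth reduction.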

Series [1] deals with Puccinia recondita var. tritici. Briefly: Wheat leaf rust control on sprayed wheat seedlings (Example 79). The format is in vivo. The conditions noted are these: Puccinia recondita, 168 h; for pest or weed control at 100 ppm: 100 ppm spray, day before inoculation. The method in brief: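 Wheat seedlings were sprayed to run-off with 100 ppm compound suspended in water with 6% acetone and 250 ppm TREM 014 surfactant. Next day they were inoculated with Puccinia recondita var. tritici spores and held 24 h at saturated humidity, 20°. Rust pustules were rated after a further 7 days in a growth room.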

Series [2] relates to apple seedlings. As to the kind of experiment: Phytotoxicity on apple seedlings (Example 82). The format is in vivo. Set-up: key: G = growth reduction; H = hormonal effects. The settings on record: 100 ppm spray. How it is done:
(§1) These suspensions were sprayed to the point of run-off on apple seedlings. The following day, the plants were inoculated with a spore suspension of the fungus Venturia inaequalis, causal agent of apple scab, and incubated in a saturated humidity chamber at 20° for 24 hours and then in a growth room for an additional 10-12 days. Treated plants from successful treatments had fewer apple scab lesions when compared to untreated plants which were covered with scab lesions. Phytotoxicity expressed as growth reduction was observed on some of the plants in association with disease control.

Another series has as its system Erysiphe cichoracearum. Briefly: Cucumber powdery mildew control on sprayed cucumber seedlings (Example 80). The format is in vivo. The settings on record: Golovinomyces cichoracearum, 168 h; for pest or weed control at 100 ppm: 100 ppm spray, day before inoculation.
For series [3], the system named is Pythium aphanadermatum. As to the kind of experiment: Pythium control on cotton, seed coating (Example 91). The format is in vivo. The settings on record: 168 h, 2 gm/kg seed. From the text:
Several compounds of the previous examples were incorporated into a proprietary formulation and used to coat cotton seeds at a rate of 2 gm/kg seed. After being thoroughly coated, the seeds were allowed to air dry at room temperature. The cotton seeds were then planted into soil amended with the fungus Pythium aphanadermatum, sand, and corn meal at a rate sufficient to kill most untreated seeds. The seeds were held at room temperature for 1 week, after which time disease ratings were made.

The subject of the next series is Phytophthora infestans. As to the kind of experiment: whole plant or invertebrate. The format is in vivo. The settings on record: Phytophthora infestans, in Solanum lycopersicum, 168 h, read-out: % Control of Tomato Late Blight, 100 ppm spray, day before inoculation.
The subject of another series is cucumber seedlings. Briefly: Phytotoxicity on cucumber seedlings (Example 80). Also noted: key: G = growth reduction; H = hormonal effects. The conditions noted are these: 100 ppm spray. The format is in vivo. On the procedure:
The compounds of the previous example were again dissolved in acetone in an amount equal to 6% of the final volume and then suspended at a concentration of 100 ppm in purified water containing 250 ppm of the surfactant TREM 014 (polyhydric alcohol esters). These suspensions were sprayed to the point of run-off, on cucumber seedlings. The following day, the plants were inoculated with a spore suspension of the fungus Erysiphe cichoracearum, causal agent of cucumber powdery mildew, and incubated in a growth room for 7 days. Disease ratings were then made. Treated plants from successful treatments had little or no powdery mildew in contrast to untreated plants which were covered with powdery mildew. Phytotoxicity in the form of growth reduction or hormonal effects was observed on some of the plants in association with disease control.

The next series deals with Pyricularia oryzae. Briefly: whole plant or invertebrate. The format is in vivo. The conditions noted are these: Pyricularia oryzae, 168 h, read-out: % Control of Rice Blast, 100 ppm spray, day before inoculation.
Series [4] concerns Pythium aphanadermatum. Briefly: Pythium control on corn, seed coating (Example 92). The format is in vivo. The conditions noted are these: 504 h, 2 gm/kg seed. On the procedure:
Several compounds of the previous examples were incorporated into a proprietary formulation and used to coat corn seeds at a rate of 2 gm/kg seed. After being thoroughly coated, the seeds were allowed to air dry at room temperature. The seeds were then planted into soil amended with a mixture of the fungus Pythium aphanadermatum, sand, and corn meal at a rate sufficient to kill most untreated seeds. The seeds were held at 49° F. for 2 weeks and then at 70° F. for 1 additional week. After this time disease ratings were made.

For a further series, the system named is Monilinia fructicola. As to the kind of experiment: Stone fruit brown rot control on dipped canned peach halves (Example 86). The settings on record: 120 h, 100 ppm dip, percent growth inhibition of colonies after five days. The gist of the method: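 Canned peach halves were dipped 3 min in a 100 ppm compound suspension (5% acetone, 700 ppm TREM 014 surfactant in water) and air-dried. Each was inoculated with two Monilinia fructicola mycelium pieces and incubated 5 days in sterile containers. Colony radii were measured, and percent control was expressed as growth inhibition versus untreated peaches.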

For another series, the system named is Uromyces phaseoli. Briefly: Bean rust control on sprayed bean seedlings (Example 85). The format is in vivo. How it is done:
This suspension was sprayed to the point of run-off on bean seedlings. The following day, the plants were inoculated with a spore suspension of the fungus Uromyces phaseoli, causal agent of bean rust, and incubated in a saturated humidity chamber at 20° for 24 hours and then in a greenhouse for 7 days. Disease ratings were then made. Treated plants from successful treatments had few or no rust pustules in contrast to untreated plants which were covered with rust pustules.

Another series has as its system 5 Phytophthora species. The format is cell-based. The conditions noted are these: 200.0 ppm in V-8 agar, 22° C., 6 days.
A further series concerns Rhizoctonia solani. Briefly: Rice sheath blight control on sprayed rice seedlings (Example 87). The format is in vivo. The conditions noted are these: Rhizoctonia solani, 168 h, 100 ppm spray, day before inoculation. The gist of the method:
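Rice seedlings were sprayed to run-off with 100 ppm compound suspended in water with 6% acetone and 250 ppm TREM 014 surfactant. They were inoculated next day with bran plus R. solani mycelium. Sheath blight was rated after 7 days in a growth room.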

Series [5] deals with apple seedlings. Briefly: Phytotoxicity on apple seedlings (Example 82). The format is in vivo. Also noted: key: G = growth reduction; C = chlorosis; B = burn. On the procedure: as §1
Another series deals with Erysiphe graminis. As to the kind of experiment: Barley powdery mildew control on sprayed barley seedlings (Example 81). The conditions noted are these: Blumeria graminis, 168 h; applied at 200 ppm. The format is in vivo. How it is done:
The compounds of the previous examples were again dissolved in acetone in an amount equal to 6% of the final volume and then suspended at a concentration of 100 ppm in purified water containing 250 ppm of the surfactant TREM 014 (polyhydric alcohol esters). These suspensions were sprayed to the point of run-off on barley seedlings. The following day, the plants were inoculated with a spore suspension of the fungus Erysiphe graminis, causal agent of barley powdery mildew, and incubated in growth room for 7 days. Disease ratings were then made. Treated plants from successful treatments had little or no powdery mildew in contrast to untreated plants which were covered with powdery mildew.

As to `Cc1ccc([Si](C)(C)Cn2cncn2)cc1` [Dimethyl(4-methylphenyl)(1H-1,2,4-triazol-1-ylmethyl)silane], the pest or weed control at 100 ppm in the series on Venturia inaequalis came to 50%; in the series on Cercospora arachidicola, 0%; in the series with Helminthosporium maydis it was 0%; in [1], 0%; in the series with Erysiphe cichoracearum, 100%; in the series with Phytophthora infestans, 0%. The pest or weed control at 100 ppm in the series with Pyricularia oryzae was found to be 0%. Moreover, the Phytotoxicity on apple entry in the series on apple seedlings [2] is listed as “G”. In addition, the pest or weed control at 2 g/kg seed with Pythium aphanadermatum [3] and in the series with Pythium aphanadermatum [4] was 0% in each case. The Phytotoxicity on cucumber result with cucumber seedlings is reported as “G”.

In the case of `C[Si](Cn1cncn1)(c1ccccc1)c1ccc(Cl)cc1` (stereo not drawn) [(4-Chlorophenyl)methyl(phenyl)(1H-1,2,4-triazol-1-ylmethyl)silane], the pest or weed control at 100 ppm with Venturia inaequalis worked out at 100%; in the series on Cercospora arachidicola, 100%; in the series with Helminthosporium maydis, 90%; in series [1], 100%; in the series on Erysiphe cichoracearum it was 100%; in the series with Phytophthora infestans it was 0%. Besides, the pest or weed control at 100 ppm in the series with Pyricularia oryzae was determined as 100%; with Rhizoctonia solani it was 90%. Besides, in the series with Monilinia fructicola, the inhibition of growth at 100 µg/mL came to 70%. The Phytotoxicity on cucumber entry in the series with cucumber seedlings is “G”. For the same compound, the “% Control Bean Rust” value with Uromyces phaseoli (applied at 16 ppm) is listed as 98%. Moreover, the “No. of 5 Phytophthora species controlled in vitro” value in the series with 5 Phytophthora species turned out to be 0.

Consider `C[Si](C)(Cn1cncn1)c1ccc(F)cc1` [Dimethyl(4-fluorophenyl)(1H-1,2,4-triazol-1-ylmethyl)silane], for which the pest or weed control at 100 ppm in the series on Venturia inaequalis was determined as 80%; with Cercospora arachidicola it was 50%; in the series with Helminthosporium maydis it was 90%; in series [1], 100%; in the series on Erysiphe cichoracearum, 100%; in the series with Phytophthora infestans, 0%. The pest or weed control at 100 ppm in the series on Pyricularia oryzae and with Rhizoctonia solani was 0% throughout. In addition, the Phytotoxicity on cucumber result in the series on cucumber seedlings was “G”. The Phytotoxicity on apple result in the series with apple seedlings [5] (100 ppm spray) is “C”.

As to `CCCCCCCCCCCC[Si](C)(C)Cn1cncn1` [Dodecyl(dimethyl)(1H-1,2,4-triazol-1-ylmethyl)silane], the results for the pest or weed control at 400 ppm with Venturia inaequalis (applied at 400 ppm) and in the series on Erysiphe cichoracearum (applied at 400 ppm) were 40% and 60%, respectively. In addition, in the series on Helminthosporium maydis, the pest or weed control at 100 ppm is 0%. For the same compound, the pest or weed control at 200 ppm (in series [1] (applied at 200 ppm); in the series on Erysiphe graminis) was 100% throughout. The Phytotoxicity on apple result in the series on apple seedlings [5] (applied at 400 ppm) is listed as “B”.

As to `CCCC[Si](C)(Cn1cncn1)c1ccc(Cl)cc1Cl` (stereo not drawn) [Butyl(2,4-dichlorophenyl)methyl(1H-1,2,4-triazol-1-ylmethyl)silane], the pest or weed control at 100 ppm in the series with Venturia inaequalis was 100%; in the series on Cercospora arachidicola it was 100%; in the series with Helminthosporium maydis it was 100%; in [1], 100%; in the series with Erysiphe cichoracearum it was 100%; in the series on Phytophthora infestans it was 0%. The pest or weed control at 100 ppm in the series on Pyricularia oryzae came to 0%; in the series with Rhizoctonia solani, 50%. Besides, at 100 µg/mL the inhibition of growth in the series on Monilinia fructicola was 98%. For the same compound, the Phytotoxicity on apple entry in the series with apple seedlings [2] was “G”. Moreover, the Phytotoxicity on cucumber result in the series on cucumber seedlings is listed as “G”. The “No. of 5 Phytophthora species controlled in vitro” value in the series with 5 Phytophthora species is reported as 0.

Consider `C[Si](C)(Cn1cncn1)c1ccc(-c2ccccc2)cc1` [(1,1'-Biphenyl-4-yl)dimethyl(1H--1,2,4-triazol-1-ylmethyl)si] [(1,1'-Biphenyl-4-yl)dimethyl(1H-1,2,4-triazol-1-ylmethyl)silane], for which the “% Control Bean Rust” value in the series on Uromyces phaseoli (80 ppm spray, day before inoculation) came out at 100%. Besides, the “No. of 5 Phytophthora species controlled in vitro” value in the series with 5 Phytophthora species came to 0.

Regarding `C[Si](Cn1cncn1)(c1ccc(F)cc1)c1ccc(F)cc1` [bis(4-Fluorophenyl)methyl(1H,-1,2,4-triazol-1-ylmethyl)silane], the pest or weed control at 100 ppm in the series with Venturia inaequalis came to 100%; in the series on Cercospora arachidicola, 100%; with Helminthosporium maydis it was 100%; in series [1], 0%; in the series with Erysiphe cichoracearum, 100%; in the series on Phytophthora infestans, 0%. Also, the pest or weed control at 100 ppm was 100% in the series on Pyricularia oryzae and 80% in the series on Rhizoctonia solani. In the series on Monilinia fructicola, this compound yielded an inhibition of growth at 100 µg/mL of 100%. For the same compound, the pest or weed control at 2 g/kg seed in the series with Pythium aphanadermatum [3] and in the series with Pythium aphanadermatum [4] was 0% each time. Besides, the Phytotoxicity on cucumber result in the series with cucumber seedlings is recorded as “G”. In addition, the “% Control Bean Rust” value in the series on Uromyces phaseoli (applied at 16 ppm) was 98%. Further, the “No. of 5 Phytophthora species controlled in vitro” value in the series on 5 Phytophthora species was 0.

As to `C[Si](Cn1cncn1)(c1ccccc1)c1ccc(F)cc1` (stereo not drawn) [(4-Fluorophenyl)methyl(phenyl)(1H-1,2,4-triazol-1-ylmethyl)silane], the pest or weed control at 100 ppm in the series with Venturia inaequalis stood at 100%; in the series with Cercospora arachidicola it was 100%; with Helminthosporium maydis it was 90%; in series [1], 90%; in the series on Erysiphe cichoracearum, 100%; with Phytophthora infestans, 0%. The pest or weed control at 100 ppm was determined as 0% in the series with Pyricularia oryzae and 80% with Rhizoctonia solani. Also, the inhibition of growth at 100 µg/mL in the series with Monilinia fructicola was found to be 90%. In the series with Uromyces phaseoli (applied at 16 ppm), the “% Control Bean Rust” value amounted to 100%. Besides, the “No. of 5 Phytophthora species controlled in vitro” value in the series with 5 Phytophthora species amounted to 0.

Broadly, the inhibition of growth is the drop in the measured response relative to a control, in per cent.
